# Results: patent US8921360B2, “Heterobicycle-substituted azolyl benzene fungicides” (priority 2009, dated 2014)
# What was measured:
# Assay type in all cases: in vivo
# [1] = test system: Puccinia recondita f. sp. tritici; assay: Test C: wheat leaf rust, spray the day after inoculation of wheat seedlings; conditions: Puccinia recondita, 120 h, wheat seedlings inoculated, sprayed the following day, rated after 5 days, read-out: Percentage Disease Control Test C;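 also: Curative spray on infected wheat seedlings with visual rating 5 days later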
# Outline: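 Wheat seedlings inoculated with P. recondita spores, held 24 h at 20 °C in saturated atmosphere, then sprayed to run-off next day (curative). Test suspension in acetone/water with 250 ppm surfactant, 200 ppm (≈800 g/ha) or 40 ppm. Disease rated visually after 5 days at 20 °C as % control relative to untreated.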
# [2] = test system: Erysiphe graminis f. sp. tritici; assay: Test A: wheat powdery mildew, preventive spray on wheat seedlings; conditions: Blumeria graminis, 192 h, wheat seedlings sprayed to run-off, inoculated next day, rated after 8 days, 100 = 100% disease control, 0 = no control, read-out: Percentage Disease Control Test A
# Outline: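 Wheat seedlings sprayed to run-off with compound suspended in acetone/water 50/50 plus 250 ppm Trem 014, at 200 ppm (equivalent to 800 g/ha) or 40 ppm where marked. Inoculated next day with Erysiphe graminis f. sp. tritici spore dust, held 8 days at 20° C. Disease visually rated as % control relative to untreated controls.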
# Septoria nodorum = assay: Test D: wheat glume blotch, preventive spray on wheat seedlings; conditions: Parastagonospora nodorum, 216 h, wheat seedlings sprayed to run-off, inoculated next day, rated after 48 h + 7 days, read-out: Percentage Disease Control Test D
# Outline: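 Compounds in acetone/water (50/50) with 250 ppm Trem 014 sprayed to run-off on wheat seedlings at 200 ppm (≈800 g/ha) or 40 ppm where marked. Spore inoculation next day, 48 h saturated atmosphere at 20 °C, then 7 days at 20 °C; visual rating as % disease control versus controls.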
# Alternaria solani = assay: Test G: tomato early blight, preventive spray on tomato seedlings; conditions: Alternaria solani, topical, 168 h, tomato seedlings sprayed to run-off, inoculated next day, rated after 48 h + 5 days, read-out: Percentage Disease Control Test G
# Outline: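 Tomato seedlings sprayed to run-off with compound at 200 ppm (≈800 g/ha) or 40 ppm where marked, in acetone/water with 250 ppm Trem 014. Plants inoculated with A. solani spores the next day, held 48 h saturated at 27 °C, then 5 days at 24 °C. Disease visually rated as % control relative to untreated plants.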
# Septoria tritici = assay: Test E: wheat leaf blotch, preventive spray on wheat seedlings; conditions: Zymoseptoria tritici, 456 h; 200 ppm; wheat seedlings sprayed to run-off, inoculated next day, rated after 48 h + 19 days; read-out: Percentage Disease Control Test E
# Outline: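 Wheat seedlings were sprayed to run-off with compound at 200 ppm (≈800 g/ha) or 40 ppm in acetone/water with surfactant. Spores were inoculated the next day, followed by 48 h saturated atmosphere at 24° C, then 19 days at 20° C. Disease control was visually rated 0–100 relative to controls.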
SMILES,pest or weed control at 200 ppm [1] [%],pest or weed control at 200 ppm [2] [%],pest or weed control at 200 ppm (Septoria nodorum) [%],pest or weed control at 200 ppm (Alternaria solani) [%],pest or weed control at 200 ppm (Septoria tritici) [%]
"COC(=O)NCc1cc(-n2ccc(-c3ccc4c(c3)CCCO4)n2)ccc1C [Compound 25, methyl N-[[5-[3-(3,4-dihydro-2H-1-benzopyran-6-yl)-1H-pyrazol-1-yl]-2-methylphenyl]methyl]carbamate]",100,100,100,0,100
"COC(=O)NCc1cc(-c2ccn(-c3ccc4c(c3)CC3(CO4)OCCO3)n2)ccc1Cl [Compound 28, methyl N-[[2-chloro-5-(1-spiro[2H-1-benzopyran-3(4H), 2′-[1,3]dioxolan]-6-yl-1H-pyrazol-3-yl)phenyl]methyl]carbamate]",100,99,99,90,93
"COC(=O)NCc1cc(-c2ccn(-c3ccc4c(c3)CC(=O)CO4)n2)ccc1Cl [Compound 29, methyl N-[[2-chloro-5-[1-(3,4-dihydro-3-oxo-2H-1-benzopyran-6-yl)-1H-pyrazol-3-yl]phenyl]methyl]carbamate]",0,72,99,17,10
"COC(=O)NCc1cc(-c2ccn(-c3ccc4c(c3)CC(O)CO4)n2)ccc1Cl (centres unmarked) [Compound 30, methyl N-[[2-chloro-5-[1-(3,4-dihydro-3-hydroxy-2H-1-benzopyran-6-yl)-1H-pyrazol-3-yl]phenyl]methyl]carbamate]",9,98,99,94,78
